From patent US8598365B2, “Herbicides” (Syngenta Limited, priority 2007, dated 2013)

Legend:
Format in all cases: in vivo
[1] = test system: Alopecurus myosuroides (ALOMY); assay: Example A pre-emergence herbicidal activity; details: rate 250 g/ha, evaluated 19 or 20 days later
Description: (§1) Seeds of a variety of test species were sown in standard soil in pots. After cultivation for one day (pre-emergence) or after 10 days cultivation (post-emergence) under controlled conditions in a glasshouse, the plants were sprayed with an aqueous spray solution derived from the formulation of the technical active ingredient in 0.6 ml acetone and 45 ml formulation solution containing 10.6% Emulsogen EL (Registry number 61791-12-6), 42.2% N-methylpyrrolidone, 42.2% dipropylene glycol monomethyl ether (Registry number 34590-94-8) and 0.2% X-77 (Registry number 11097-66-8). The test plants were then grown in a greenhouse under optimum conditions until, 14 or 15 days later for post-emergence and 19 or 20 days for pre-emergence, the test was evaluated (100=total damage to plant; 0=no damage to plant). Alopecurus myosuroides (ALOMY), Avena fatua (AVEFA), Lolium perenne (LOLPE), Setaria faberi (SETFA), Digitaria sanguinalis (DIGSA), Echinochloa crus-galli (ECHCG)

Avena fatua (AVEFA) [2] = assay: Example A pre-emergence herbicidal activity; details: rate 250 g/ha, evaluated 19 or 20 days later
Description: as §1

[3] = test system: Digitaria sanguinalis (DIGSA); assay: Example A pre-emergence herbicidal activity; details: rate 250 g/ha, evaluated 19 or 20 days later
Description: as §1

[4] = test system: Echinochloa crus-galli (ECHCG); assay: Example A pre-emergence herbicidal activity; details: rate 250 g/ha, evaluated 19 or 20 days later
Description: as §1

Lolium perenne (LOLPE) [5] = assay: Example A pre-emergence herbicidal activity; details: rate 250 g/ha, evaluated 19 or 20 days later
Description: as §1

Setaria faberi (SETFA) [6] = assay: Example A pre-emergence herbicidal activity; details: rate 250 g/ha, evaluated 19 or 20 days later
Description: as §1

[7] = test system: Alopecurus myosuroides (ALOMY); assay: Example A post-emergence herbicidal activity; details: rate 125 g/ha, evaluated 14 or 15 days later
Description: as §1

Avena fatua (AVEFA) [8] = assay: Example A post-emergence herbicidal activity; details: rate 125 g/ha, evaluated 14 or 15 days later
Description: as §1

[9] = test system: Digitaria sanguinalis (DIGSA); assay: Example A post-emergence herbicidal activity; details: rate 125 g/ha, evaluated 14 or 15 days later
Description: as §1

[10] = test system: Echinochloa crus-galli (ECHCG); assay: Example A post-emergence herbicidal activity; details: rate 125 g/ha, evaluated 14 or 15 days later
Description: as §1

Lolium perenne (LOLPE) [11] = assay: Example A post-emergence herbicidal activity; details: rate 125 g/ha, evaluated 14 or 15 days later
Description: as §1

Setaria faberi (SETFA) [12] = assay: Example A post-emergence herbicidal activity; details: rate 125 g/ha, evaluated 14 or 15 days later
Description: as §1

## Cc1sc(-c2ccc(Cl)cc2)nc1C1C(=O)[C@@H]2CC[C@@H](C2)C1=O (stereo partly drawn) [Compound T17]
[1]
  Pre-Emergence Activity ALOMY (100=total damage to plant; 0=no damage to plant): 100
Avena fatua (AVEFA) [2]
  Pre-Emergence Activity AVEFA (100=total damage to plant; 0=no damage to plant): 100
[3]
  Pre-Emergence Activity DIGSA (100=total damage to plant; 0=no damage to plant): 100
[4]
  Pre-Emergence Activity ECHCG (100=total damage to plant; 0=no damage to plant): 100
Lolium perenne (LOLPE) [5]
  Pre-Emergence Activity LOLPE (100=total damage to plant; 0=no damage to plant): 100
Setaria faberi (SETFA) [6]
  Pre-Emergence Activity SETFA (100=total damage to plant; 0=no damage to plant): 100
[7]
  Post-Emergence Activity ALOMY (100=total damage to plant; 0=no damage to plant): 70
Avena fatua (AVEFA) [8]
  Post-Emergence Activity AVEFA (100=total damage to plant; 0=no damage to plant): 50
[9]
  Post-Emergence Activity DIGSA (100=total damage to plant; 0=no damage to plant): 80
[10]
  Post-Emergence Activity ECHCG (100=total damage to plant; 0=no damage to plant): 90
Lolium perenne (LOLPE) [11]
  Post-Emergence Activity LOLPE (100=total damage to plant; 0=no damage to plant): 40
Setaria faberi (SETFA) [12]
  Post-Emergence Activity SETFA (100=total damage to plant; 0=no damage to plant): 80

## CCc1sc(-c2ccc(Cl)cc2)nc1C1C(=O)[C@@H]2CC[C@@H](C2)C1=O (stereo partly drawn) [Compound T19, 3-[2-(4-chlorophenyl)-5-ethylthiazol-4-yl]bicyclo[3.2.1]octane-2,4-dione]
[1]
  Pre-Emergence Activity ALOMY (100=total damage to plant; 0=no damage to plant): 100
Avena fatua (AVEFA) [2]
  Pre-Emergence Activity AVEFA (100=total damage to plant; 0=no damage to plant): 100
[3]
  Pre-Emergence Activity DIGSA (100=total damage to plant; 0=no damage to plant): 100
[4]
  Pre-Emergence Activity ECHCG (100=total damage to plant; 0=no damage to plant): 100
Lolium perenne (LOLPE) [5]
  Pre-Emergence Activity LOLPE (100=total damage to plant; 0=no damage to plant): 100
Setaria faberi (SETFA) [6]
  Pre-Emergence Activity SETFA (100=total damage to plant; 0=no damage to plant): 100
[7]
  Post-Emergence Activity ALOMY (100=total damage to plant; 0=no damage to plant): 100
Avena fatua (AVEFA) [8]
  Post-Emergence Activity AVEFA (100=total damage to plant; 0=no damage to plant): 100
[9]
  Post-Emergence Activity DIGSA (100=total damage to plant; 0=no damage to plant): 100
[10]
  Post-Emergence Activity ECHCG (100=total damage to plant; 0=no damage to plant): 100
Lolium perenne (LOLPE) [11]
  Post-Emergence Activity LOLPE (100=total damage to plant; 0=no damage to plant): 80
Setaria faberi (SETFA) [12]
  Post-Emergence Activity SETFA (100=total damage to plant; 0=no damage to plant): 100

## COc1ccc(-c2nc(C3C(=O)[C@@H]4CC[C@@H](C4)C3=O)c(C)s2)cn1 (stereo partly drawn) [Compound T18]
[1]
  Pre-Emergence Activity ALOMY (100=total damage to plant; 0=no damage to plant): 0
Avena fatua (AVEFA) [2]
  Pre-Emergence Activity AVEFA (100=total damage to plant; 0=no damage to plant): 0
[3]
  Pre-Emergence Activity DIGSA (100=total damage to plant; 0=no damage to plant): 30
[4]
  Pre-Emergence Activity ECHCG (100=total damage to plant; 0=no damage to plant): 20
Lolium perenne (LOLPE) [5]
  Pre-Emergence Activity LOLPE (100=total damage to plant; 0=no damage to plant): 0
Setaria faberi (SETFA) [6]
  Pre-Emergence Activity SETFA (100=total damage to plant; 0=no damage to plant): 20
[7]
  Post-Emergence Activity ALOMY (100=total damage to plant; 0=no damage to plant): 40
Avena fatua (AVEFA) [8]
  Post-Emergence Activity AVEFA (100=total damage to plant; 0=no damage to plant): 30
[9]
  Post-Emergence Activity DIGSA (100=total damage to plant; 0=no damage to plant): 60
[10]
  Post-Emergence Activity ECHCG (100=total damage to plant; 0=no damage to plant): 50
Lolium perenne (LOLPE) [11]
  Post-Emergence Activity LOLPE (100=total damage to plant; 0=no damage to plant): 20
Setaria faberi (SETFA) [12]
  Post-Emergence Activity SETFA (100=total damage to plant; 0=no damage to plant): 60
